{
  "source": "paper PMC6686011",
  "about": "“Ruthenium(II) complexes with 6-methyl-2-thiouracil selectively reduce cell proliferation, cause DNA double-strand break and trigger caspase-mediated apoptosis through JNK/p38 pathways in human acute promyelocytic leukemia cells” (Scientific Reports, 2019)",
  "key": {"[1]": {"test_system": "BAD KO SV40 MEF (immortalized mouse embryonic fibroblast with the BAD gene knocked out)", "test": "Cytotoxicity, alamar blue assay", "format": "cell-based", "settings": "Mus musculus, MEF, 72 h, read-out: IC50, BAD KO SV40 MEF cell line", "experimental": "(§1) Cytotoxicity was measured using alamar blue assay and was performed following the procedure that was described previously[21],[22]. Briefly, cells were inserted in 96-well plates and incubated overnight. Then, the complexes were dissolved in dimethyl sulfoxide (DMSO, LGC Biotechnology, São Paulo, SP, Brazil) and added to each well and incubated for 72 h. […] Before the end of treatment (4 h for cell lines and 24 h for PBMC), 20 μL of a stock solution (0.312 mg/mL) of alamar blue (resazurin, Sigma-Aldrich Co.) were added to each well. Absorbance at 570 nm and 600 nm was measured using SpectraMax 190 Microplate Reader (Molecular Devices, Sunnyvale, CA, USA)."}, "[2]": {"test_system": "HL-60 (human acute promyelocytic leukemia)", "test": "Cytotoxicity, alamar blue assay", "format": "cell-based", "settings": "Homo sapiens, HL-60; alamar blue, 72 h; read-out: IC50 and 95% CI, HL-60", "experimental": "as §1"}, "[3]": {"test_system": "SCC-4 (human oral squamous cell carcinoma)", "test": "Cytotoxicity, alamar blue assay", "format": "cell-based", "settings": "Homo sapiens, SCC-4; alamar blue, 72 h; read-out: IC50 and 95% CI, SCC-4", "experimental": "as §1"}, "[4]": {"test_system": "WT SV40 MEF (wild-type immortalized mouse embryonic fibroblasts)", "test": "Cytotoxicity, alamar blue assay", "format": "cell-based", "settings": "Mus musculus, MEF, 72 h, read-out: IC50, WT SV40 MEF cell line", "experimental": "as §1"}, "[5]": {"test_system": "PBMC (human peripheral blood mononuclear cells)", "test": "Cytotoxicity, alamar blue assay", "format": "cell-based", "settings": "Homo sapiens, PBMC, non-cancer cells, 72 h, read-out: IC50 and 95% CI, PBMC", "excerpt": "HL-60 (human acute promyelocytic leukemia), K-562 (human chronic myelogenous leukemia), HCT116 (human colon carcinoma), HepG2 (human hepatocellular carcinoma), HSC-3 (human oral squamous cell carcinoma), SCC-9 (human oral squamous cell carcinoma), B16-F10 (mouse melanoma), MRC-5 (human lung fibroblast), WT SV40 MEF (wild-type immortalized mouse embryonic fibroblast) and BAD KO SV40 MEF (BAD gene knockout immortalized mouse embryonic fibroblast) cell lines were obtained from American Type Culture Collection (ATCC, Manassas, VA, USA). Human peripheral blood mononuclear cells (PBMC) were isolated using standard Ficoll density gradient from heparinized blood collected from 20- to 35-year-old, non-smoker healthy donors with informed consent (number 031019/2013) approved by Human Ethics Committee of Gonçalo Moniz Institute from Oswaldo Cruz Foundation (IGM-FIOCRUZ/BA), and all experiments were performed in accordance with relevant guidelines and regulations. Cells were cultured as recommended by ATCC guidelines and a mycoplasma stain kit (Sigma-Aldrich) was used to validate the use of cells free from contamination. Cell viability in all experiments was examined using the trypan blue exclusion (TBE) assay. Over 90% of the cells were viable at the beginning of the culture.\nas §1"}, "HL-60 cells [6]": {"test_system": "HL-60 cells", "test": "Trypan blue exclusion assay", "format": "cell-based, human", "settings": "HL-60, 24 h, 1 μM", "experimental": "The number of viable cells and non-viable (take up trypan blue) were counted by TBE method. Shortly, 90 μL was removed from the cell suspension and 10 μL of trypan blue (0.4%) was added. Cell counting was performed using a light microscope with a neubauer chamber."}, "HL-60 cells [7]": {"test_system": "HL-60 cells", "test": "Morphological analysis (May-Grunwald-Giemsa staining, light scattering)", "format": "cell-based, human", "settings": "HL-60, 12 and 24 h; DOX 1 µM", "experimental": "To cell morphology evaluation, slides were prepared using cytospin and stained with May-Grunwald-Giemsa. Morphological changes were assessed by light microscopy (Olympus BX41, Tokyo, Japan) using Image-Pro software (Media Cybernetics, Inc. Silver Spring, USA). Light scattering features were determined by flow cytometry. At least 10^4 events were recorded per sample using a BD LSRFortessa cytometer along with BD FACSDiva Software (BD Biosciences, San Jose, CA, USA) and Flowjo Software 10 (Flowjo LCC, Ashland, OR, USA). Cellular debris was omitted from the analysis."}, "HL-60 cells [8]": {"test_system": "HL-60 cells", "test": "Apoptosis quantification, annexin V-FITC/PI flow cytometry", "format": "cell-based, human", "experimental": "Shortly, cells were washed twice with saline solution and resuspended in 100 μL of binding buffer plus 5 μL of propidium iodide (PI) and 5 μL of FITC Annexin V. Then, cells were gently mixed by vortexing and incubated for 15 min at room temperature in the dark. Finally, 400 μL of binding buffer was added to each tube, and the cell fluorescence was determined by flow cytometry, as described above. Percentage of viable, early apoptotic, late apoptotic and necrotic cells were measured. […] Cells were then analyzed by FITC Annexin V Apoptosis Detection assay as described above."}, "HL-60 cells [9]": {"test_system": "HL-60 cells", "test": "Mitochondrial transmembrane potential, rhodamine 123", "format": "cell-based, human", "settings": "HL-60, 24 h; DOX 1 µM", "experimental": "Mitochondrial transmembrane potential was determined by retention of dye rhodamine 123 as described previously. Briefly, cells were incubated with rhodamine 123 (5 μg/mL, Sigma-Aldrich Co.) at room temperature for 15 min in dark and washed with saline solution. Cells were incubated again in saline solution for more 30 min in dark and cell fluorescence was determined by flow cytometry as described above."}, "HL-60 cell xenografts": {"test_system": "HL-60 cell xenografts", "test": "Human myeloid leukemia xenograft model", "format": "in vivo, C.B-17 SCID mice", "settings": "0.1 mg/kg intraperitoneal once a day for 13 consecutive days", "experimental": "Fifty six specific-pathogen-free (SPF) C.B-17 severe combined immunodeficient (SCID) mice (females, 23–26 g) were used in this study. The animals were obtained and maintained at animal facilities from Gonçalo Moniz Institute-FIOCRUZ (Salvador, Bahia, Brazil), and housed in cages with free access to food and water, and kept under a 12:12 h light-dark cycle (lights on at 6:00 a.m.). The animals were treated according to ethical principles for animal experimentation of SBCAL (Brazilian Association of Laboratory Animal Science), Brazil. Experimental protocol have been approved (number 06/2015) by Animal Ethics Committee of Gonçalo Moniz Institute-FIOCRUZ (Salvador, Bahia, Brazil).\nHuman myeloid leukemia xenograft model was carry out as described previously by Rodrigues et al.[26] with minor modifications. HL-60 cells (2.5 × 10^7 cells/500 µL) were implanted subcutaneously into the left front armpit of the mice. […] When the tumors reached 100 to 200 mm^3 (22 days after HL-60 cells injection), the animals were treated through the intraperitoneal route (200 µL per animal) once a day for 13 consecutive days. One day after the end of the treatment, the animals were anesthetized, and peripheral blood samples were collected from brachial artery. Animals were euthanized by anesthetic overdose, and tumors were excised and weighed."}, "[10]": {"test": "Toxicological evaluation in xenograft mice", "format": "in vivo, C.B-17 SCID mice", "settings": "doxorubicin 0.1 mg/kg", "experimental": "To assess toxicological aspects, mice were weighed at the beginning and at the end of the experiment as described previously by Rodrigues et al.[26]. […] Hematological analysis was performed using the Advia 60 hematology system (Bayer, Leverkusen, Germany). Livers, kidneys, lungs and hearts were removed, weighed and examined for any signs of macroscopic lesions, color changes and/or hemorrhages. After macroscopic examination, tumors, livers, kidneys, lungs and hearts were fixed in 4% formalin buffer and embedded in paraffin. Tissue sections were stained with hematoxylin/eosin staining, and a pathologist performed the histological analyses under optical microscopy."}},
  "data": [
    {"smiles": "COc1cccc2c1C(=O)c1c(O)c3c(c(O)c1C2=O)C[C@@](O)(C(=O)CO)C[C@@H]3O[C@H]1C[C@H](N)[C@H](O)[C@H](C)O1", "note": "[doxorubicin, reference compound]", "values": [
      {"measurement": "IC50", "setting": "[1]", "result": 410, "unit": "nM"},
      {"measurement": "IC50", "setting": "[2]", "result": 20, "unit": "nM"},
      {"measurement": "IC50", "setting": "[3]", "result": 1430, "unit": "nM"},
      {"measurement": "IC50", "setting": "[4]", "result": 40, "unit": "nM"},
      {"measurement": "IC50", "setting": "[5]", "result": 5170, "unit": "nM"},
      {"measurement": "Reduction of the number of viable cells", "setting": "HL-60 cells [6]", "result": "reduced the number of viable cells"},
      {"measurement": "Cell morphology, May-Grunwald-Giemsa staining", "setting": "HL-60 cells [7]", "result": "presented changes associated with apoptosis"},
      {"measurement": "Apoptotic cells, in words", "setting": "HL-60 cells [8]; HL-60, 12 and 24 h, DOX 1 µM", "result": "induced apoptosis"},
      {"measurement": "Apoptosis on cotreatment with pan-caspase inhibitor Z-VAD(OMe)-FMK, in words", "setting": "HL-60 cells [8]; HL-60, 2 h pre-treatment 50 µM Z-VAD(OMe)-FMK, then 24 h", "result": "led to apoptosis through caspases pathways"},
      {"measurement": "Mitochondrial transmembrane potential, in words", "setting": "HL-60 cells [9]", "result": "induced depolarization of mitochondrial transmembrane potential"},
      {"measurement": "Reduction of tumor weight", "setting": "HL-60 cell xenografts", "result": 62.0, "unit": "%"},
      {"measurement": "Kidney histopathology", "setting": "[10]; complex 1 20 and 40 mg/kg", "result": "Coagulation necrosis was observed in renal tubules"},
      {"measurement": "Lung histopathology", "setting": "[10]; complex 1 20 and 40 mg/kg", "result": "tumor nodules were observed only in one animal"},
      {"measurement": "Body weight", "setting": "[10]; mice bearing HL-60 cells, 13 days", "result": "decreased body weight"}
    ]}
  ]
}
